What was measured:
[1] = target: Sodium-dependent serotonin transporter (Homo sapiens, UniProt P31645)
[2] = target: T1, Cholecystokinin receptor type A (Homo sapiens, UniProt P32238)
T1 sequence (P32238 whole entry): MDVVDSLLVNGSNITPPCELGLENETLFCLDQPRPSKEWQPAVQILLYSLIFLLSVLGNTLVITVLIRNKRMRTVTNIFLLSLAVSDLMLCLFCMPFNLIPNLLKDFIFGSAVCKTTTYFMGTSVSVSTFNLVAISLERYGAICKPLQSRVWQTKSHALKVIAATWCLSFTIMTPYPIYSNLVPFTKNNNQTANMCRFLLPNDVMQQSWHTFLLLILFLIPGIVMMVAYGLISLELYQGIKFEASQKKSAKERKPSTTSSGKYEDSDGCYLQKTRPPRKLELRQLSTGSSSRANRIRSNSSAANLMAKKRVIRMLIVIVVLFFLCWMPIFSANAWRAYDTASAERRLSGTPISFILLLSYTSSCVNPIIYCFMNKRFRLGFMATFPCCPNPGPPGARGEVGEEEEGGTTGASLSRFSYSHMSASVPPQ

[3] = target: 5-hydroxytryptamine receptor 2B (Homo sapiens, UniProt P41595); format: functional, cell-based
[4] = target: T2, 5-hydroxytryptamine receptor 3A (Homo sapiens, UniProt P46098); format: functional
T2 sequence (P46098 whole entry): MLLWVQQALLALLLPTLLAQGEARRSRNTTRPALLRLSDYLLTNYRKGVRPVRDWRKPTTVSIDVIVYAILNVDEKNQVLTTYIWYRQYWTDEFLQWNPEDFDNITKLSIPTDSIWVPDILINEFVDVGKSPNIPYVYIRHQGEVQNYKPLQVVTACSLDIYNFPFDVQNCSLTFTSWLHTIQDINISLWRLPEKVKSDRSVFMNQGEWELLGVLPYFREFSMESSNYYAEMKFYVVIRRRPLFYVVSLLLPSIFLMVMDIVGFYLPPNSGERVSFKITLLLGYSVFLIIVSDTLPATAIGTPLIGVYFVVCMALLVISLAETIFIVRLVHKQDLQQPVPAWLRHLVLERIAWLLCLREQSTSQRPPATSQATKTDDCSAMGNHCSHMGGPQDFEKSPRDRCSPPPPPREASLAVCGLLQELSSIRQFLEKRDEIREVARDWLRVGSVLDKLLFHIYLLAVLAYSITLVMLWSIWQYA

[5] = target: T3, Neuropeptide Y receptor type 1 (Homo sapiens, UniProt P25929)
T3 sequence (P25929 whole entry): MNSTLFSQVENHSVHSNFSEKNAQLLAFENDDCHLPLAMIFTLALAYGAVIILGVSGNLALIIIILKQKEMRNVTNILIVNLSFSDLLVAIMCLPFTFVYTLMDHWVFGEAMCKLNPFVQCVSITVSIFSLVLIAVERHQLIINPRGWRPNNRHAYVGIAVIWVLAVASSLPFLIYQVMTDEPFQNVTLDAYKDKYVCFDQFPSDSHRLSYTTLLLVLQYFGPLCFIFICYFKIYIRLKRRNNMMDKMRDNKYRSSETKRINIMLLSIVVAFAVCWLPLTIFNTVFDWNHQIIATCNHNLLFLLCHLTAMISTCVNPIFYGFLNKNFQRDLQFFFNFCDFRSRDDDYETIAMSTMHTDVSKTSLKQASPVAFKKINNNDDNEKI

[6] = target: T4, Alpha-2A adrenergic receptor (Homo sapiens, UniProt P08913); format: functional, cell-based
T4 sequence (P08913 whole entry): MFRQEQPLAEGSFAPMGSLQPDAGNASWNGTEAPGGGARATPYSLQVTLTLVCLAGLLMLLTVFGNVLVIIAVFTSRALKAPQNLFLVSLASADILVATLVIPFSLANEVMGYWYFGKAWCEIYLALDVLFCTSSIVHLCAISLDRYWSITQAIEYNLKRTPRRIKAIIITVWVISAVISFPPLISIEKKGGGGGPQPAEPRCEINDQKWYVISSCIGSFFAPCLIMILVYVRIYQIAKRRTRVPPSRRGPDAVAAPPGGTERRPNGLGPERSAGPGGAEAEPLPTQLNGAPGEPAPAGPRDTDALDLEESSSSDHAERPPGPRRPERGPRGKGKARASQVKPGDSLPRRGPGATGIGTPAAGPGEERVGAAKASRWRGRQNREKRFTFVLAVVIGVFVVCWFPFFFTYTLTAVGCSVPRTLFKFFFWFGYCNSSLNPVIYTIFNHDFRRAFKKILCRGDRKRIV

[7] = target: T4, Alpha-2A adrenergic receptor; format: functional, cell-based; remark: listed apart in the source
[8] = target: Motilin receptor (Homo sapiens, UniProt O43193)
[9] = target: T5, Gastrin/cholecystokinin type B receptor (Homo sapiens, UniProt P32239)
T5 sequence (P32239 whole entry): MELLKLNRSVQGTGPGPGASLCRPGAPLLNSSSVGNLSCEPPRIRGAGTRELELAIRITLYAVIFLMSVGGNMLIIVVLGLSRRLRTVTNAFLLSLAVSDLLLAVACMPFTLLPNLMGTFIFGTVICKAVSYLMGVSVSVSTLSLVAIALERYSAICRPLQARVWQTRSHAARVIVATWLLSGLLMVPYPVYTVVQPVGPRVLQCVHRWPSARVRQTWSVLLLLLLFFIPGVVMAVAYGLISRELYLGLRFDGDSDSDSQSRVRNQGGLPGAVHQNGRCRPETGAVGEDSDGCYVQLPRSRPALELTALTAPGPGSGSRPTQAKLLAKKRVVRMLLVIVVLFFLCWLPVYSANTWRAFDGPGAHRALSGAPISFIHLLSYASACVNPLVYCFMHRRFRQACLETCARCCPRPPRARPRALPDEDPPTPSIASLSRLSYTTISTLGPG

[10] = target: Cannabinoid receptor 1 (Homo sapiens, UniProt P21554); format: functional, cell-based
Also: assay procedure not described here.

Sequence of Motilin receptor (O43193 whole entry): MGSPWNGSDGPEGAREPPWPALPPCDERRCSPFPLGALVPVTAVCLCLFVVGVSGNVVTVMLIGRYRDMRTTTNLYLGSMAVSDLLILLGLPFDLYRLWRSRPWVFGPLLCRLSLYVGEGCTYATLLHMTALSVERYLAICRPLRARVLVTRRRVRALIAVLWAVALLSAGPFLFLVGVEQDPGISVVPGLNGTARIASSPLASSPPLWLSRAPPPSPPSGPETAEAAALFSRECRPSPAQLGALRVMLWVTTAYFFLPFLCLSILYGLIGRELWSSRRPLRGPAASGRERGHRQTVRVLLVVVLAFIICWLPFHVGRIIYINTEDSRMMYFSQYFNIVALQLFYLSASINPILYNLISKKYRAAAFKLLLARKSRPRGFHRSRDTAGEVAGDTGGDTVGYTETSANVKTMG
Sequence of Sodium-dependent serotonin transporter (P31645 whole entry): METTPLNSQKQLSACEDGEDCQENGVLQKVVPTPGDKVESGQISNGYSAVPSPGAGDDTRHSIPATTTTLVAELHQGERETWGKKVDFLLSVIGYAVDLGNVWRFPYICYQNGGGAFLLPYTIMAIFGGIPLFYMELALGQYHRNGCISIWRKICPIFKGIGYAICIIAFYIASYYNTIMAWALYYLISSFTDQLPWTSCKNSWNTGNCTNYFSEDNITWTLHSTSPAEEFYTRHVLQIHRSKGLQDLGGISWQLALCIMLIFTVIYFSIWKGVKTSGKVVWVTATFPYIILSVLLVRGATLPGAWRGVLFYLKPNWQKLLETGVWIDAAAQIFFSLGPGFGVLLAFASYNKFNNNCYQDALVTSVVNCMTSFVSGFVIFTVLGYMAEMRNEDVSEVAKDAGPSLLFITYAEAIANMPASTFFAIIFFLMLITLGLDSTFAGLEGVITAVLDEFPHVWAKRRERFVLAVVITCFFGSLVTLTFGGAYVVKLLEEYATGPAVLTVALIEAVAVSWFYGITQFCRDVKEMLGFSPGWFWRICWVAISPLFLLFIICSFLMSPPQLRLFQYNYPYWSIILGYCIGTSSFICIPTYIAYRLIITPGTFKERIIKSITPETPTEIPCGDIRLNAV
Sequence of Cannabinoid receptor 1 (P21554 whole entry): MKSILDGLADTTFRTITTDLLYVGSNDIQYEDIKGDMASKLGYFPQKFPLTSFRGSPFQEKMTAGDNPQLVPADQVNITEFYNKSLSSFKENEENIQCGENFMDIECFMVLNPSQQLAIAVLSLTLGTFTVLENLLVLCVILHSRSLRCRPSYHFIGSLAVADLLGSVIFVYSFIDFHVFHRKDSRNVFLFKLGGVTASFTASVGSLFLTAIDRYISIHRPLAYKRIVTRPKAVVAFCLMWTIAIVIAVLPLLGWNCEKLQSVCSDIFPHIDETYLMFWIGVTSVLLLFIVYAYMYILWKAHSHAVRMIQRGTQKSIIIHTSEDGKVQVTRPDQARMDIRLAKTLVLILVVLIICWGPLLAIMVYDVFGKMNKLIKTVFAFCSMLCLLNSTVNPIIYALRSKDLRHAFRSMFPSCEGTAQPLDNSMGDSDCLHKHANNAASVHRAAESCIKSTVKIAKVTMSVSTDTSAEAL
Sequence of 5-hydroxytryptamine receptor 2B (P41595 whole entry): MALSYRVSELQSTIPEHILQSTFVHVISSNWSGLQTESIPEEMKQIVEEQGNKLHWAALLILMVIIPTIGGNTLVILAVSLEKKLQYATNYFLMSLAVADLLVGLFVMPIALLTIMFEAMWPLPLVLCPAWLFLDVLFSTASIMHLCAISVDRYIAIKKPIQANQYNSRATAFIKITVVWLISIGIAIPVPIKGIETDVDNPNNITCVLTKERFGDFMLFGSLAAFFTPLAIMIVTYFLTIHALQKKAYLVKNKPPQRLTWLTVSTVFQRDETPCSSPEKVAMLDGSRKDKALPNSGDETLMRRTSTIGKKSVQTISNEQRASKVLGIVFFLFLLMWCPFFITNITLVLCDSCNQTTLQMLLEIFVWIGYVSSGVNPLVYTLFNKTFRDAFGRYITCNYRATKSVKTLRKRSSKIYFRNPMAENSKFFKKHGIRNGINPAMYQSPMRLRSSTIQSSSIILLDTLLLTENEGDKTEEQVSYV

SMILES | AC50 [1] [µM] | AC50 [2] [µM] | AC50 [3] [µM] | AC50 [4] [µM] | AC50 [5] [µM] | AC50 [6] [µM] | AC50 [7] [µM] | AC50 [8] [µM] | AC50 [9] [µM] | AC50 [10] [µM]
CN1CCC[C@@H]1Cc1c[nH]c2ccc(CCS(=O)(=O)c3ccccc3)cc12 | > 30 |  |  |  |  |  |  |  |  | 
COc1nccnc1NS(=O)(=O)c1ccc(N)cc1 | > 30 |  |  |  |  |  |  |  |  | 
NC(=O)c1nc(F)c[nH]c1=O | > 30 |  |  |  |  |  |  |  |  | 
CN(C)CCCN1C(=O)c2cc([N+](=O)[O-])ccc2Oc2ccccc21 | 0.271 |  |  |  |  |  |  |  |  | 
O=C(O)COc1nn(Cc2ccccc2)c2ccccc12 [BENDAZAC] | > 30 |  |  |  |  |  |  |  |  | 
Cc1ccc([C@@H]2O[C@H](CO)[C@@H](O)[C@H](O)[C@H]2O)cc1Cc1ccc(-c2ccc(F)cc2)s1 [CANAGLIFLOZIN ANHYDROUS] | 26.1 |  |  |  |  |  |  |  |  | 
CN(C)CCN(Cc1ccc(Cl)cc1)c1ccccn1 [CHLOROPYRAMINE] | 0.0202 |  |  |  |  |  |  |  |  | 
O=C(O)c1cc(=O)c2ccccc2o1 [CHROMOCARB] | > 30 |  |  |  |  |  |  |  |  | 
CN(CC(=O)O)C(=N)N [CREATINE] | > 30 |  |  |  |  |  |  |  |  | 
N[C@@H](CSSC[C@H](N)C(=O)O)C(=O)O [CYSTINE] | > 30 |  |  |  |  |  |  |  |  | 
C[C@]12CC[C@@H]3c4ccc(O)cc4CC[C@H]3[C@@H]1CC[C@@H]2OC(=O)CCC1CCCC1 [ESTRADIOL CYPIONATE] | > 30 |  |  |  |  |  |  |  |  | 
C[C@]12CCC(=O)C=C1CC[C@@H]1[C@@H]2[C@@H](O)C[C@@]2(C)[C@H]1CC[C@]2(O)C(=O)COC(=O)CCC(=O)O [HYDROCORTISONE HEMISUCCINATE ANHYDROUS] | > 30 |  |  |  |  |  |  |  |  | 
N=C(N)NCc1cccc([123I])c1 [IOBENGUANE I 123] | > 30 |  |  |  |  |  |  |  |  | 
CC(C)(N)C(=O)N[C@H](Cc1c[nH]c2ccccc12)C(=O)N[C@H](Cc1c[nH]c2ccccc12)NC=O [MACIMORELIN] | > 30 |  |  |  |  |  |  |  |  | 
C=C1c2c(Cl)ccc(O)c2C(=O)C2=C(O)[C@]3(O)C(=O)C(C(N)=O)=C(O)[C@@H](N(C)C)[C@@H]3[C@@H](O)[C@H]12 [MECLOCYCLINE] | > 30 |  |  |  |  |  |  |  |  | 
Cc1cnc(NC(=O)C2=C(O)c3ccccc3S(=O)(=O)N2C)s1 [MELOXICAM] |  | > 30 | > 10 | > 10 | > 30 | > 10 | > 10 | > 10 | > 30 | > 30
Cc1cc2c(OCC(O)CNC(C)C)cccc2[nH]1 (stereo not drawn) [MEPINDOLOL] | > 30 |  |  |  |  |  |  |  |  | 
CC[C@@H](CO)NC(=O)[C@@H]1C=C2c3cccc4[nH]cc(c34)C[C@H]2N(C)C1 [METHYLERGONOVINE] |  | > 30 | 0.0257 | > 30 | > 30 | > 30 | 17 | > 30 | > 30 | > 30
COc1ccnc(C[S+]([O-])c2nc3ccc(OC(F)F)cc3[nH]2)c1OC (stereo not drawn) [PANTOPRAZOLE] |  | > 30 | > 10 | > 30 | > 30 | > 10 | > 10 | > 10 | > 30 | > 30
COc1ccc(Cc2nccc3cc(OC)c(OC)cc23)cc1OC [PAPAVERINE] |  | > 30 | > 30 | > 30 | > 30 | > 30 | > 30 | > 30 | > 30 | > 30
O=C1NC(=O)C(c2ccccc2)(c2ccccc2)N1 [PHENYTOIN] |  | > 30 | > 30 | > 30 | > 30 | > 30 | > 30 | > 30 | > 30 | > 30
CC(C)C[C@H](CN)CC(=O)O [PREGABALIN] |  | > 30 | 28 | > 30 | > 30 | > 30 | > 30 | > 30 | > 30 | > 30
O=C(Nc1c(Cl)cncc1Cl)c1ccc(OC(F)F)c(OCC2CC2)c1 [ROFLUMILAST] |  | > 30 | > 30 | > 30 | > 30 | > 30 | > 30 | > 30 | > 30 | > 30
CCCN(CCC)CCc1cccc2c1CC(=O)N2 [ROPINIROLE] |  | > 30 | 2.76 | > 30 | > 30 | > 30 | 12 | > 30 | > 30 | > 30
CC(C)N(CCCCOCC(=O)NS(C)(=O)=O)c1cnc(-c2ccccc2)c(-c2ccccc2)n1 [SELEXIPAG] |  | > 30 | > 30 | > 30 | > 30 | > 30 | > 30 | > 30 | > 10 | 28
CC(=O)S[C@@H]1CC2=CC(=O)CC[C@]2(C)[C@H]2CC[C@@]3(C)[C@@H](CC[C@@]34CCC(=O)O4)[C@H]12 [SPIRONOLACTONE] |  | > 30 | > 30 | > 30 | > 30 | > 30 | > 30 | > 30 | > 30 | > 30
CCCCNc1ccc(C(=O)OCCN(C)C)cc1 [TETRACAINE] |  | > 30 | > 10 | > 10 | > 30 | > 10 | > 10 | > 10 | > 30 | > 30
Cn1c(=O)c2[nH]cnc2n(C)c1=O [THEOPHYLLINE] |  | > 30 | > 10 | > 30 | > 30 | > 10 | > 10 | > 10 | > 30 | > 30
Cc1cc(CC(=O)O)n(C)c1C(=O)c1ccc(Cl)cc1 [ZOMEPIRAC] |  | > 30 | > 30 | > 30 | > 30 | > 30 | > 30 | > 30 | > 30 | > 10
